Test results reported in patent US20250017942A1, “Prevention and treatment of osteoarticular diseases by inhibiting acetylcholinesterase” (priority 2021, published 2025).
Where a name gives a salt, the structure may show the parent alone.

Experiments:
[1] = biological target: AChE (rat cortex homogenate) (Rattus norvegicus, UniProt P37136); experiment: biochemical; format: biochemical; details: for IC50: rat cortex homogenate, in the presence of ethopropazine as a specific BuChE inhibitor
RAW 264.7 cells = experiment: RANKL-induced osteoclastogenesis of RAW 264.7 cells; format: cell-based, mouse; details: RAW 264.7, RANKL 15 ng/ml 3 days, 0.1, 0.5 and 1 μM (FIG. 9)
ATDC5 cells = experiment: IL-1β-stimulated ATDC5 cells, marker expression by qPCR; format: cell-based, mouse; details: 10 ng/ml IL-1β, 24 h, qPCR (FIG. 3A)

Sequence of AChE (rat cortex homogenate) (P37136 32-614): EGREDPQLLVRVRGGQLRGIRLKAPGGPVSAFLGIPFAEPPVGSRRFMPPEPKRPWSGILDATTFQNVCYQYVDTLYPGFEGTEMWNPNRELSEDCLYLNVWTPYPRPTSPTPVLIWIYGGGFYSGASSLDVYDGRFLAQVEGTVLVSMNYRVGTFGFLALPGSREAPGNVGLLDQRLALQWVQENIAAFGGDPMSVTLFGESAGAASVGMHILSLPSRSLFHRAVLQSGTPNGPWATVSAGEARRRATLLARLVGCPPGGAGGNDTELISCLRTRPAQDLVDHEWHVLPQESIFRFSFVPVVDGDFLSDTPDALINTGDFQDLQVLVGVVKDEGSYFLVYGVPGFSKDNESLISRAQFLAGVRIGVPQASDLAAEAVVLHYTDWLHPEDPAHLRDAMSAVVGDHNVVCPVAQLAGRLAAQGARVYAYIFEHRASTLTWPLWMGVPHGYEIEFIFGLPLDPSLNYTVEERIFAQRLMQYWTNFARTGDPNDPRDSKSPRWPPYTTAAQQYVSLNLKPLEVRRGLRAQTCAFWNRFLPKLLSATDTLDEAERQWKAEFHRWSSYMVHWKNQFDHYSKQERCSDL

Compound `O=c1ccc2c([nH]1)CCCC2NCCCCCCCCCCCNC1CCCc2[nH]c(=O)ccc21` (stereo not drawn) [E11E] has an IC50 [1] of 84 ± 5 nM.

With `O=c1ccc2c([nH]1)CCC[C@@H]2NCCCCCCCCCCCCN[C@H]1CCCc2[nH]c(=O)ccc21` [E12E, (S,S)-(−)-N, N′-di-5′-(5′, 6′7′,8′-tetrahydroquinolin-2-onyl)-1,12-diaminododecane, bis-hydrochloride] the Osteoclastogenesis (RAW 264.7 cells) was “suppressed osteoclastogenesis in a dose-dependent manner”, the “Potency in inhibiting rat brain AChE relative to HA” value [1] was “about twice as potent as HA” and the “Potency in inhibiting rat brain AChE relative to tacrine” value [1] was “about 4.4 times”. The “Pro-inflammatory cytokine expression after IL-1β stimulation” value (ATDC5 cells) was “down-regulating key pro-inflammatory cytokines including TNF-alpha”.

For `O=c1ccc2c([nH]1)CCCC2NCCCCCCCCCCCCCNC1CCCc2[nH]c(=O)ccc21` (stereo not drawn) [E13E], the IC50 [1] was 52 ± 9 nM.
